Data on 13 compounds can be found in DBAASP.

Each structure is given as a SMILES string. In brackets after ≈: the same amount, converted by molar mass.

Among the test systems are Bacillus subtilis; Escherichia coli; Candida albicans; Staphylococcus aureus.
Assay in all cases: ≥ marks a high value that may be exact or a test limit, other limits are often not marked, values filed in µg/mL are converted to µM
Experiment [1] has as its system Staphylococcus aureus ATCC 25923.
In experiment [2] the test system is Candida albicans ATCC 10231.
Experiment [3] concerns Bacillus subtilis ATCC 6633.
The subject of experiment [4] is Escherichia coli ATCC 25922.
The subject of experiment [5] is Candida albicans ATCC 90028.
The test system of experiment [6] is Pseudomonas aeruginosa ATCC 27853.
Experiment [7] concerns Staphylococcus aureus ATCC 29213.
The test system of experiment [8] is Staphylococcus epidermidis.
Experiment [9] concerns Candida albicans ATCC 2002.
For experiment [10], the system named is Klebsiella pneumoniae ATCC 700603.

The term MIC denotes the least concentration at which growth counts as inhibited. Regarding `CC[C@H](C)[C@H](N)C(=O)N[C@@H](CC(=O)O)C(=O)N[C@@H](Cc1c[nH]c2ccccc12)C(=O)N[C@@H](CCCCN)C(=O)N[C@@H](CCCCN)C(=O)N[C@H](C(=O)N[C@@H](Cc1ccccc1)C(=O)N[C@@H](CCC(=O)O)C(=O)N[C@@H](CCCCN)C(=O)N[C@H](C(=O)N[C@@H](CCCCN)C(=O)N[C@@H](CC(=O)O)C(=O)N[C@@H](CC(C)C)C(=O)N[C@H](C(N)=O)C(C)C)C(C)C)[C@@H](C)CC` [IDWKKIFEKVKDLV], the MIC against Bacillus subtilis came to 17.5 µM (≈ 30.8 µg/mL); against Escherichia coli, 47.5 µM (≈ 83.6 µg/mL).
For the compound `CC[C@H](C)[C@H](NC(=O)CNC(=O)[C@H](CO)NC(=O)[C@H](CC(C)C)NC(=O)[C@H](CC(C)C)NC(=O)CN)C(=O)N[C@@H](CC(C)C)C(=O)NCC(=O)N[C@@H](C)C(=O)NCC(=O)N[C@@H](CCCCN)C(=O)N[C@@H](Cc1cnc[nH]1)C(=O)N[C@H](C(=O)N[C@H](C(=O)N[C@H]1CSSC[C@@H](C(=O)O)NC(=O)[C@H](CC(C)C)NC(=O)CNC(=O)[C@H](CO)NC(=O)[C@H](CC(C)C)NC(=O)CNC1=O)[C@@H](C)CC)[C@@H](C)CC` [GLLSGILGAGKHIICGLSGLC], the MIC against Candida albicans was 0.555 µM (≈ 1.1 µg/mL); with Bacillus subtilis, not below 50.4 µM; with Staphylococcus aureus, more than 50.4 µM; with Escherichia coli, more than 50.4 µM.
For `CC(C)[C@H](NC(=O)[C@H](CCCCN)NC(=O)[C@@H](NC(=O)[C@H](CCC(N)=O)NC(=O)[C@H](CCCCN)NC(=O)[C@H](Cc1c[nH]c2ccccc12)NC(=O)[C@@H](N)CCCN=C(N)N)C(C)C)C(=O)N[C@@H](CCCCN)C(=O)N[C@@H](CCCN=C(N)N)C(=O)O` [RWKQVKVKR], the MIC in experiment [1] was more than 81.5 µM; in experiment [2] it was 30.5 µM (≈ 37.5 µg/mL); in experiment [3] it was not below 61.1 µM; in [4] it was 61.1 µM (≈ 75 µg/mL).
Turning to `CC[C@H](C)[C@H](NC(=O)[C@H](CCCN=C(N)N)NC(=O)[C@H](CCCCN)NC(=O)[C@@H](NC(=O)[C@@H](NC(=O)[C@H](CCCN=C(N)N)NC(=O)[C@@H](N)CCCCN)[C@@H](C)CC)C(C)C)C(=O)N[C@@H](CCCCN)C(=O)N[C@@H](C)C(=O)N[C@@H](Cc1ccccc1)C(=O)N[C@@H](CC(C)C)C(=O)N[C@@H](CCCN=C(N)N)C(=O)O` [KRIVKRIKAFLR], the MIC in experiment [5], in experiment [6], in experiment [4] and in experiment [7] was 1.25 µM (≈ 1.91 µg/mL) throughout.
The compound `CC[C@H](C)[C@H](NC(=O)[C@H](CC(=O)O)NC(=O)[C@@H](NC(=O)[C@H](CCCCN)NC(=O)[C@H](Cc1ccccc1)NC(=O)[C@@H]1CCCN1)[C@@H](C)CC)C(=O)N[C@@H](Cc1cnc[nH]1)C(=O)N[C@@H](CC(C)C)C(=O)NCC(=O)NCC(=O)N[C@@H](Cc1ccc(O)cc1)C(N)=O` [PFKIDIHLGGY] yielded an MIC in experiment [8] of 23.8 µM (≈ 30 µg/mL).
For the compound `CC[C@H](C)[C@H](NC(=O)CNC(=O)[C@H](CO)NC(=O)[C@H](CC(C)C)NC(=O)[C@H](CC(C)C)NC(=O)CN)C(=O)N[C@@H](CC(C)C)C(=O)NCC(=O)N[C@@H](C)C(=O)NCC(=O)N[C@@H](CCCCN)C(=O)N[C@@H](Cc1cnc[nH]1)C(=O)N[C@H](C(=O)N[C@H](C(=O)N[C@@H](CS)C(=O)NCC(=O)N[C@@H](CC(C)C)C(=O)N[C@@H](CO)C(=O)NCC(=O)N1CCC[C@H]1C(=O)N[C@H]1CSSC[C@@H](C(=O)O)NC(=O)[C@H](CCCCN)NC(=O)[C@H](C)NC(=O)[C@H](CC(C)C)NC(=O)[C@H](Cc2cnc[nH]2)NC(=O)[C@H](Cc2ccc(O)cc2)NC(=O)[C@H](CCC(=O)O)NC(=O)[C@H](C(C)C)NC(=O)[C@H](CC(=O)O)NC(=O)[C@H](CO)NC(=O)[C@H](CO)NC(=O)[C@H](CCCCN)NC(=O)[C@H](CCCN=C(N)N)NC(=O)[C@H](CC(N)=O)NC(=O)[C@H](CC(C)C)NC(=O)[C@H](CO)NC(=O)[C@H](CCC(N)=O)NC1=O)C(C)C)[C@@H](C)CC` [GLLSGILGAGKHIVCGLSGPCQSLNRKSSDVEYHLAKC], the MIC in the experiment with Candida albicans was 0.797 µM (≈ 3.12 µg/mL); in the experiment with Bacillus subtilis, 3.19 µM (≈ 12.5 µg/mL); in the experiment with Staphylococcus aureus it was 0.797 µM (≈ 3.12 µg/mL); against Escherichia coli, 1.6 µM (≈ 6.25 µg/mL).
The compound `CC[C@H](C)[C@H](NC(=O)[C@@H](NC(=O)[C@@H](NC(=O)[C@@H]1CCCN1C(=O)[C@H](Cc1c[nH]c2ccccc12)NC(=O)[C@H](Cc1ccccc1)NC(=O)[C@H](CCCN=C(N)N)NC(=O)[C@H](CCCCN)NC(=O)[C@@H](NC(=O)[C@@H](N)CCCN=C(N)N)[C@@H](C)CC)C(C)C)C(C)C)C(=O)N[C@@H](CCCN=C(N)N)C(=O)N[C@H](C(=O)N[C@H](C(=O)N[C@H](C(=O)N[C@@H](C)C(=O)NCC(=O)N[C@@H](Cc1ccc(O)cc1)C(=O)N[C@@H](CC(N)=O)C(=O)O)C(C)C)C(C)C)[C@@H](C)O` [RIKRFWPVVIRTVVAGYN] yielded an MIC in experiment [9] not below 69 µM.
Take `CC[C@H](C)[C@H](NC(=O)[C@H](CCCN=C(N)N)NC(=O)[C@H](CCC(N)=O)NC(=O)[C@@H](NC(=O)[C@@H](NC(=O)[C@H](CCCN=C(N)N)NC(=O)[C@@H](N)CCCCN)[C@@H](C)CC)C(C)C)C(=O)N[C@@H](C)C(=O)N[C@@H](CC(=O)O)C(=O)N[C@@H](Cc1ccccc1)C(=O)N[C@@H](CC(C)C)C(=O)N[C@@H](CCCN=C(N)N)C(=O)O` [KRIVQRIADFLR]: the MIC is not below 40 µM in [5], 40 µM (≈ 60.6 µg/mL) in [6], 40 µM (≈ 60.6 µg/mL) in experiment [4] and 40 µM (≈ 60.6 µg/mL) in [7].
Regarding `CC[C@H](C)[C@H](NC(=O)[C@@H](NC(=O)[C@@H]1CCCN1C(=O)[C@@H](NC(=O)[C@@H]1CCCN1C(=O)[C@H](CCCCN)NC(=O)[C@H](CCCCN)NC(=O)[C@H](CO)NC(=O)CN)C(C)C)[C@@H](C)CC)C(=O)N[C@@H](Cc1ccc(O)cc1)C(=O)N[C@H]1CSSC[C@@H](C(=O)N[C@@H](CCC(N)=O)C(=O)N[C@@H](CCCN=C(N)N)C(=O)N[C@@H](CCSC)C(=O)O)NC(=O)[C@H](CCCCN)NC(=O)[C@H](C)NC(=O)[C@H]([C@@H](C)O)NC(=O)[C@H](CCCN=C(N)N)NC(=O)[C@H](CCCN=C(N)N)NC(=O)[C@H](CC(N)=O)NC1=O` [GSKKPVPIIYCNRRTAKCQRM], the MIC in experiment [10] and in [4] was 6.53 µM (≈ 16 µg/mL) each time.
With `CSCC[C@H](NC(=O)[C@H](Cc1ccccc1)NC(=O)CN)C(=O)N[C@@H](CO)C(=O)N[C@H](C(=O)N[C@@H](C)C(=O)N[C@@H](CO)C(=O)N[C@@H](CC(N)=O)C(=O)N[C@H](C(=O)N[C@@H](CC(C)C)C(=O)N[C@H](C(=O)N[C@@H](CC(N)=O)C(=O)N[C@H](C(=O)N[C@@H](C)C(=O)NCC(=O)N[C@H](C(=O)N[C@H](C(=O)N[C@@H](CCSC)C(=O)N[C@@H](CC(=O)O)C(=O)N[C@@H](CCCCN)C(=O)N[C@@H](CC(C)C)C(=O)N[C@@H](CCCCN)C(=O)N[C@H]1CSSC[C@@H](C(=O)O)NC(=O)[C@H](C)NC(=O)CNC(=O)[C@H]([C@@H](C)O)NC(=O)[C@H](Cc2ccccc2)NC(=O)[C@H](CCCCN)NC1=O)C(C)C)[C@@H](C)O)C(C)C)[C@@H](C)O)C(C)C)[C@@H](C)O` [GFMSTASNVLTNVAGTVMDKLKCKFTGAC], in experiment [3], the MIC is not below 100 µM.
Consider `CC(C)C[C@H](NC(=O)[C@@H]1CCCN1C(=O)[C@H](CCCCN)NC(=O)[C@@H]1CCCN1C(=O)[C@H](Cc1ccc(O)cc1)NC(=O)[C@H](CCCCN)NC(=O)[C@H](Cc1c[nH]c2ccccc12)NC(=O)[C@H](CCCN=C(N)N)NC(=O)[C@@H](N)Cc1ccccc1)C(=O)N[C@@H](CCCCN)C(=O)N[C@@H](CCCN=C(N)N)C(=O)O` [FRWKYPKPLKR], for which the MIC in [1] is more than 65.8 µM; in [2], more than 65.8 µM; in experiment [3], not below 65.8 µM; in experiment [4] it was more than 65.8 µM.
As for `CC[C@H](C)[C@H](NC(=O)[C@H](CC(C)C)NC(=O)[C@H](C)NC(=O)[C@@H]1CCCN1C(=O)[C@H](CC(C)C)NC(=O)[C@@H](N)CC(C)C)C(=O)N[C@@H](CO)C(=O)N[C@@H](Cc1c[nH]c2ccccc12)C(=O)N[C@H](C(=O)N[C@@H](CCCCN)C(=O)N[C@@H](CCCN=C(N)N)C(=O)N[C@@H](CCCCN)C(=O)N[C@@H](CCCN=C(N)N)C(=O)N[C@@H](CCC(N)=O)C(=O)N[C@@H](CCC(N)=O)C(N)=O)[C@@H](C)CC` [LLPALISWIKRKRQQ], the MIC turned out to be 1.19 µM (≈ 2.2 µg/mL) in the experiment with Bacillus subtilis, 0.595 µM (≈ 1.1 µg/mL) in the experiment with Staphylococcus aureus and 38.3 µM (≈ 70.8 µg/mL) in the experiment on Escherichia coli.
As for `CC[C@H](C)[C@H](NC(=O)[C@H](CO)NC(=O)[C@H](C)NC(=O)[C@@H](NC(=O)[C@H](CCCCN)NC(=O)[C@H](CCCCN)NC(=O)[C@H](Cc1c[nH]c2ccccc12)NC(=O)[C@@H](NC(=O)[C@@H](N)CC(N)=O)[C@@H](C)CC)[C@@H](C)CC)C(=O)N[C@@H](C)C(=O)N[C@@H](CCCCN)C(=O)N[C@@H](CCC(=O)O)C(=O)N[C@H](C(=O)N[C@@H](CC(C)C)C(=O)N[C@@H](CCCCN)C(=O)N[C@@H](C)C(=O)N[C@@H](CC(C)C)C(N)=O)C(C)C` [NIWKKIASIAKEVLKAL], the MIC against Bacillus subtilis is 10 µM (≈ 19.2 µg/mL); in the experiment on Escherichia coli it was 6.25 µM (≈ 12 µg/mL).
